Structures can show the parent of a compound that is named as a salt.

By melting point is commonly meant the temperature, or range, at which the solid turns liquid. Broadly, the IC50 is the midpoint of a concentration-inhibition curve.

Data set [1] addresses T1, recombinant human baculovirus-expressed GST-tagged FASN (Homo sapiens, UniProt P49327).
T1 construct: GST; host or cells: baculovirus expression system (insect cells implied)
As to the kind of experiment: FASN enzyme activity assay: fluorescence-based detection of CoA with CPM. To be noted: 5 nM FASN, 150 μM NADPH, 10 μM acetyl-CoA, 25 μM malonyl-CoA, 90 minutes incubation. It counts as biochemical. The gist of the method:
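IC50 values were fitted (variable-slope sigmoid) to percent inhibition from CPM fluorescence (390/530 nm) reporting free CoA after a 30 min labelling step. The reaction ran 90 min after malonyl-CoA (25 μM) addition, with 10 μM acetyl-CoA, 150 μM NADPH, 5 nM recombinant GST-FASN, 50 mM HEPES pH 7.5 and 0.5% DMSO.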

T1 sequence (P49327 whole entry): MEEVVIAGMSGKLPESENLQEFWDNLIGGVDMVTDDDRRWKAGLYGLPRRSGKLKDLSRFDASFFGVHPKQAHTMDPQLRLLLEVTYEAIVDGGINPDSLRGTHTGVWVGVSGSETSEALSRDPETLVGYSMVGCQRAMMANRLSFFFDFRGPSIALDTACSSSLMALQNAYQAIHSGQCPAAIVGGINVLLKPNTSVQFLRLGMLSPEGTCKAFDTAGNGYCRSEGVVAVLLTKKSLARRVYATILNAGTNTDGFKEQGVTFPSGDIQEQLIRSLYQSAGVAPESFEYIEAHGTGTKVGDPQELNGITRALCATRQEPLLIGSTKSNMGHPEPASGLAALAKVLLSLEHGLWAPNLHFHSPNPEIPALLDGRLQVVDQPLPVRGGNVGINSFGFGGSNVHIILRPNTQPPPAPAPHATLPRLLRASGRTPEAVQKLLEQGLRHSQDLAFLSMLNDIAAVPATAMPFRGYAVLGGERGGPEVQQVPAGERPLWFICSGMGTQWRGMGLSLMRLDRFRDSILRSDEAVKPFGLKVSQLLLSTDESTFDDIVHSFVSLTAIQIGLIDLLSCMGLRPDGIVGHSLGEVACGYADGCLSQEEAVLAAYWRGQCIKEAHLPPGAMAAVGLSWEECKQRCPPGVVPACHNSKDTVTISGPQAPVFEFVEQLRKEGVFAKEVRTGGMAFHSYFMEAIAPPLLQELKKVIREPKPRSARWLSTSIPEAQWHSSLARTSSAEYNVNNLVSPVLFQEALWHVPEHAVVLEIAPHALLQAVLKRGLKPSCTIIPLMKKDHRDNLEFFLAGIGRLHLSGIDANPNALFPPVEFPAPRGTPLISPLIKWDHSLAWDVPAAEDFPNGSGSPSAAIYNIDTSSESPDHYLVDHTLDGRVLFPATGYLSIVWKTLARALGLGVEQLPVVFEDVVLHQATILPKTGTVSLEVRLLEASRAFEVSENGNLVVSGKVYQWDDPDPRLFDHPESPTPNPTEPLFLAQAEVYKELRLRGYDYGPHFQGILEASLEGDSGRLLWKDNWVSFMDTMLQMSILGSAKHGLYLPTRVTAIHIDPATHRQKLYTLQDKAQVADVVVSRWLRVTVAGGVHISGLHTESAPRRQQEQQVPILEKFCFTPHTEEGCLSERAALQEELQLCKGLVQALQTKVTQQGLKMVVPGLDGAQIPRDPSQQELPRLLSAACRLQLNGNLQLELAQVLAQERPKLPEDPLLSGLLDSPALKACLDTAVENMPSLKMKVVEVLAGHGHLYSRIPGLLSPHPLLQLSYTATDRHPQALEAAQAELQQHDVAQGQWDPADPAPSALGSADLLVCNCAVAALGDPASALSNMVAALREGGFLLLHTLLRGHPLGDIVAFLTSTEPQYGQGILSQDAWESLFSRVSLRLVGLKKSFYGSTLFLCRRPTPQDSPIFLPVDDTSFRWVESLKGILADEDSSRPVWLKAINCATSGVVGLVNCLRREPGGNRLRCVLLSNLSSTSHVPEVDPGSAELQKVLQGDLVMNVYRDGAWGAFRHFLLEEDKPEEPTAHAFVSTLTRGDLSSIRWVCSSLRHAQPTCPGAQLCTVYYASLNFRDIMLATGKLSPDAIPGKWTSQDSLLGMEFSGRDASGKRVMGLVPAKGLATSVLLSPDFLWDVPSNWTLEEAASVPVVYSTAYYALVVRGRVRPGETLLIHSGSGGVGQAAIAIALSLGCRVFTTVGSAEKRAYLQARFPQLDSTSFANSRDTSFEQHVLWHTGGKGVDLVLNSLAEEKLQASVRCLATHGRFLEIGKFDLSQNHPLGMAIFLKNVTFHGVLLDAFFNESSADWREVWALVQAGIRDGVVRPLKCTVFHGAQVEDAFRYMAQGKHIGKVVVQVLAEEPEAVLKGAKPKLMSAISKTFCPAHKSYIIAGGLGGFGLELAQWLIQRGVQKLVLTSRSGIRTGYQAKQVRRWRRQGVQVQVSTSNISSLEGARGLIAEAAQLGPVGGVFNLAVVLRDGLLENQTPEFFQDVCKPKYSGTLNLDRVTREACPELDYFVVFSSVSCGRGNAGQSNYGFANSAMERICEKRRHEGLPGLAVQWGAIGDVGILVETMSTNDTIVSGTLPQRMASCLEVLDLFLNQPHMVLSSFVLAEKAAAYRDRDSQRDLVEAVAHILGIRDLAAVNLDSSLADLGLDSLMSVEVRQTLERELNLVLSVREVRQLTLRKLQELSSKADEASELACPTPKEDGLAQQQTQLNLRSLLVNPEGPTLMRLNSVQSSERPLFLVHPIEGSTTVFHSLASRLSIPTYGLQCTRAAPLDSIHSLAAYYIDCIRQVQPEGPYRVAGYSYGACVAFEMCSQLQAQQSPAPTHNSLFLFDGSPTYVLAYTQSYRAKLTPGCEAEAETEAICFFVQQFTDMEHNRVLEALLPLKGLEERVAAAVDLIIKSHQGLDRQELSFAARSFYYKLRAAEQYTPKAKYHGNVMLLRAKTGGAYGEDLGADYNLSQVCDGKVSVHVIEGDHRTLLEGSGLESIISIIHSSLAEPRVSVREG

Turning to `CC(C)C(=O)N1CCC(O)(Cc2ccc(-c3cc4ccccc4o3)cc2)CC1` [Example 157, 1-(4-(4-(benzofuran-2-yl)benzyl)-4-hydroxypiperidin-1-yl)-2-methylpropan-1-one], the melting point was 203 °C. For the same molecule, the IC50 in data set [1] was 1000 to 10000 nM.

Molecule `CC(C)C(=O)N1CCC(O)(Cc2ccc(-c3cnc4ccccc4c3)cc2)CC1` [Example 149, 1-(4-hydroxy-4-(4-(quinolin-3-yl)benzyl)piperidin-1-yl)-2-methylpropan-1-one] yielded a melting point of 168 °C. Moreover, the IC50 in data set [1] fell in the range of 1000 to 10000 nM.

As for `CCC(=O)N1CCC(O)(Cc2ccc(-c3cnc4ccccc4c3)cc2)CC1` [Example 148, 1-(4-hydroxy-4-(4-(quinolin-3-yl)benzyl)piperidin-1-yl)propan-1-one], the melting point amounted to 89 °C. Moreover, the IC50 in data set [1] is 1000 to 10000 nM.

For the molecule `CCC(=O)N1CCC(O)(Cc2ccc(-c3ccc4occc4c3)cc2)CC1` [Example 152, 1-(4-(4-(benzofuran-5-yl)benzyl)-4-hydroxypiperidin-1-yl)propan-1-one], the melting point came out at 76 °C. In addition, the IC50 in data set [1] fell in the range of 1000 to 10000 nM.

As to `CCC(=O)N1CCC(O)(Cc2ccc(-c3cc4ccccc4o3)cc2)CC1` [Example 156, 1-(4-(4-(benzofuran-2-yl)benzyl)-4-hydroxypiperidin-1-yl)propan-1-one], the melting point is 174 °C. Also, the IC50 in data set [1] is 1000 to 10000 nM.

Molecule `CCC(=O)N1CCC(O)(Cc2ccc(-c3ccc4cnccc4c3)cc2)CC1` [Example 160, 1-(4-hydroxy-4-(4-(isoquinolin-6-yl)benzyl)piperidin-1-yl)propan-1-one] registered a melting point of 94 °C. For the same molecule, the IC50 in data set [1] lay within 100 to 999 nM.

Molecule `CCC(=O)N1CCC(C(C)c2ccc(-c3cnc4ccccc4c3)cc2)CC1` (single isomer, unassigned) (as salt: HCl) [Example 68, 1-{4-[1-(4-Quinolin-3-yl-phenyl)-ethyl]-piperidin-1-yl}-propan-1-one] displayed a melting point of 219 to 221 °C.

As for `CCC(=O)N1CCC(O)(Cc2ccc(-c3ccc4[nH]ccc4c3)cc2)CC1` [Example 154, 1-(4-(4-(1H-indol-5-yl)benzyl)-4-hydroxypiperidin-1-yl)propan-1-one], the melting point was found to be 100 °C. In addition, the IC50 in data set [1] is 1000 to 10000 nM.

Take `COc1c(-c2ccc(CC3(C#N)CCN(C(=O)[C@H]4CCCO4)CC3)cc2)ccc2cccnc12` [Example 91, 4-[4-(8-Methoxyquinolin-7-yl)-benzyl]-1-((R)-tetrahydrofuran-2-carbonyl)-piperidine-4-carbonitrile]: the melting point is 102 to 105 °C. Further, in data set [1], the IC50 fell in the range of 1 to 99 nM.

`C=C(c1ccc(-c2cnc3ccccc3c2)cc1)C1CCN(C(=O)C2CC2)CC1` [Example 41, Cyclopropyl-{4-[1-(4-quinolin-3-yl-phenyl)-vinyl]-piperidin-1-yl}-methanone]: the melting point fell in the range of 100 to 102 °C. For the same molecule, the IC50 in data set [1] fell in the range of 1 to 99 nM.

With `CCC(=O)N1CCC(C(C)c2ccc(-c3cnc4ccccc4c3)cc2)CC1` (stereo not shown) (as salt: HCl) [Example 39, 1-(4-(1-(4-(quinolin-3-yl)phenyl)ethyl)piperidin-1-yl)propan-1-one], the melting point was 178 to 180 °C.

`CCC(=O)N1CCC(C(C)c2ccc(-c3ccc4c(c3)NCCC4)cc2)CC1` (stereo not shown) [Example 38, 1-(4-(1-(4-(1,2,3,4-tetrahydroquinolin-7-yl)phenyl)ethyl)piperidin-1-yl)propan-1-one] gave a melting point of 169 to 171 °C. Moreover, in data set [1], the IC50 fell in the range of 1000 to 10000 nM.

`CCC(=O)N1CCC(O)(Cc2ccc(-c3cncc4ccccc34)cc2)CC1` [Example 158, 1-(4-hydroxy-4-(4-(isoquinolin-4-yl)benzyl)piperidin-1-yl)propan-1-one] returned a melting point of 78 °C. For the same molecule, in data set [1], the IC50 fell in the range of 1000 to 10000 nM.

On to `CCC(=O)N1CCC(C(C)c2ccc(-c3cnc4ccccc4c3)cc2)CC1` (single isomer, unassigned) (as salt: HCl) [Example 67, 1-{4-[1-(4-Quinolin-3-yl-phenyl)-ethyl]-piperidin-1-yl}-propan-1-one], for which the melting point was 215 to 219 °C.

Regarding `CC(=O)N1CCC(C2(c3ccc(-c4ccc5ncccc5c4)cc3)OCCO2)CC1` [Example 106, 1-{4-[2-(4-Quinolin-6-yl-phenyl)-1,3-dioxolan-2-yl]-piperidin-1-yl}-ethanone], the IC50 in data set [1] fell in the range of 1000 to 10000 nM.

Regarding `CCC(=O)N1CCC(C(C)c2ccc(-c3cnc4ccccc4c3Cl)cc2)CC1` (stereo not shown) [Example 75, 1-(4-{1-[4-(4-Chloroquinolin-3-yl)-phenyl]-ethyl}-piperidin-1-yl)-propan-1-one], in data set [1], the IC50 lay in the range of 1 to 99 nM.

Take `CCC(=O)N1CCC(/C(=N\OC)c2ccc(-c3cnc4ccccc4c3)cc2)CC1` [Example 46, 1-{4-[[(E:Z)-Methoxyimino]-(4-quinolin-3-yl-phenyl)-methyl]-piperidin-1-yl}-propan-1-one]: the IC50 in data set [1] fell in the range of 1 to 99 nM.

For the molecule `CCC(=O)N1CCC(C(O)c2ccc(-c3ccc4cnccc4c3)cc2)CC1` (stereo not shown) [Example 130, 1-{4-[Hydroxy-(4-isoquinolin-6-yl-phenyl)-methyl]-piperidin-1-yl}-propan-1-one], in data set [1], the IC50 is 1 to 99 nM.

As for `CCC(=O)N1CCC(C(c2ccc(-c3cnc4ccccc4c3)cc2)C2CC2)CC1` (stereo not shown) [Example 48, 1-{4-[Cyclopropyl-(4-quinolin-3-yl-phenyl)-methyl]-piperidin-1-yl}-propan-1-one], the IC50 in data set [1] fell in the range of 100 to 999 nM.

For `CCC(=O)N1CCC(F)(Cc2ccc(-c3ccc4cccnc4c3C)cc2)CC1` [Example 185, 1-(4-fluoro-4-(4-(8-methylquinolin-7-yl)benzyl)piperidin-1-yl)propan-1-one], the IC50 in data set [1] lay within 1 to 99 nM.

On to `CCC(=O)N1CCC(C(C)c2ccc(-c3cnc4ccccc4c3)cc2)CC1` (single isomer, unassigned) [Example 68, 1-{4-[1-(4-Quinolin-3-yl-phenyl)-ethyl]-piperidin-1-yl}-propan-1-one], for which, in data set [1], the IC50 lay within 1 to 99 nM.

With `Cc1c(-c2ccc(CC3CCN(C(=O)C4CC4)CC3)cc2)ccc2nccn12` [Example 95, Cyclopropyl-{4-[4-(5-methylimidazo[1,2-a]pyridin-6-yl)-benzyl]-piperidin-1-yl}-methanone], the IC50 in data set [1] was in the range of 100 to 999 nM.

For `O=C(C1CC1)N1CC=C(Cc2ccc(-c3ccc4cnccc4c3)cc2)CC1` [Example 176, Cyclopropyl(4-(4-(isoquinolin-6-yl)benzyl)-5,6-dihydropyridin-1(2H)-yl)methanone], the IC50 in data set [1] fell in the range of 100 to 999 nM.

As for `CCCC(=O)N1CCC(C2(c3ccc(-c4ccc5ncccc5c4)cc3)OCCO2)CC1` [Example 105, 1-{4-[2-(4-Quinolin-6-yl-phenyl)-1,3-dioxolan-2-yl]-piperidin-1-yl}-butan-1-one], the 50% inhibitory concentration (IC50) in data set [1] was in the range of 1000 to 10000 nM.

Regarding `Cc1c(-c2ccc(CC3(F)CCN(C(=O)[C@H]4CCCO4)CC3)cc2)ccc2cccnc12` [Example 199, (R)-(4-fluoro-4-(4-(8-methylquinolin-7-yl)benzyl)piperidin-1-yl)(tetrahydrofuran-2-yl)methanone], in data set [1], the IC50 was in the range of 1 to 99 nM.

For the molecule `CCC(=O)N1CCC(C(=O)c2ccc(-c3ccc4cnccc4c3)cc2)C1` (stereo not shown) [Example 133, 1-[3-(4-Isoquinolin-6-yl-benzoyl)-pyrrolidin-1-yl]-propan-1-one], in data set [1], the IC50 is 1000 to 10000 nM.

The record behind these values is US11878966B2, “Substituted 4-benzyl and 4-benzoyl piperidine derivates” (89BIO LTD, priority 2015, dated 2024).
